From patent US11661404B2, “Prodrug compounds activated by AKR1C3 and their use for treating hyperproliferative disorders” (priority 2018, dated 2023)
pIC50: −log10 of the molar value. “Also recorded” adds a separate entry of the source.

What was measured:
AKR1C3 mixed MCLs = conditions: Silva, MSc Thesis; cited from earlier work
[1] = system: mixed MCLs that only express 1% of the activating reductase E. coli NfsB; conditions: 1% NfsB-expressing cells; Singleton et al., 2007; cited from earlier work
[2] = system: wild-type HCT116 colon cancer cells; test: Anti-proliferative IC50 assay (SRB), wild-type HCT116; assay type: cell-based, human; conditions: 4 hour exposure, 5 days growth; read-out: HCT116-WT IC50
Excerpt: (§1) The cellular cytotoxicity of compounds of the invention resulting from AKR1C3-dependent metabolism of the compounds can readily be observed in anti-proliferative IC50 testing in isogenic cell lines that have been engineered to over-express human AKR1C3, relative to their wild-type counterparts that have been selected for their comparatively low levels of endogenous AKR1C3 expression (by Western blot analysis). The direct role of AKR1C3 in metabolism and cytotoxicity of the compounds is further supported for selected examples by repeat anti-proliferative experiments in the presence of a potent and selective small molecule inhibitor of AKR1C3, SN34037 (Flanagan et al., Bioorganic & Medicinal Chemistry (2014), 22(3), 967-977).
(§2) Four hundred cells were seeded in a volume of 100 μL in each well of a 96-well plate. The cells were left in a humidified incubator (37° C., 5% CO2) for 2 hours in order to enable attachment to the surface of the wells prior to compound addition. All compounds were prepared as stocks in DMSO and stored at −80° C. Frozen stocks of compounds were thawed immediately prior to addition to cells. Working solutions of each compound were made in α-MEM+5% FBS (v/v) at 3 times the required final concentration for the top well. The final concentration of DMSO in the α-MEM solution was ensured to not exceed 1% of the total volume. 50 μL of the working solution was added to the top wells (in duplicates) and gently mixed. The solubility of some compounds precluded the working solution in α-MEM to be 3 times the desired top well concentration. […] A 3-fold serial dilution was carried out along the plate starting from the top well. The first column of wells on the plate served as blanks (containing α-MEM+FBS) and the second column served as control wells (containing cells with no compound added). Following compound addition, the plates were incubated for 4 hours in a humidified incubator (37° C., 5% CO2).
(§3) Following the 4 hour compound exposure, the 96-well plates were washed three times by aspirating media with an Immuno Washer (Nunc) and each well replaced with 150 μL of α-MEM+5% (v/v) FBS+1% (v/v) P/S. The plates were left in a humidified incubator (37° C., 5% CO2) for 5 days to enable cell growth. The cells in 96-well plates were fixed 5 days after compound exposure by adding 50 μL of a 40% (w/v) trichloroacetic acid (TCA) solution so as to obtain a final TCA concentration of 10% in each well. The plates were left in the refrigerator (4° C.) for 1 hour and subsequently rinsed 3 times in tap water. Any excess water was left to drain and the cells were stained with 50 μL of 0.4% (w/v) sulforhodamine B (SRB). The plates with the SRB stain were left in the dark for 30 minutes. Excess stain was removed from the wells by rinsing the plates 4 times in water containing 1% (v/v) acetic acid. The stain was solubilised by adding 100 μL of 10 mM unbuffered Tris (pH 10.5) to each well and the plates were left in a shaker in a dark environment at room temperature for at least 1 hour. The absorbance values of the wells were determined by an ELx 808 Absorbance Microplate Reader (Bio-Tek Instruments, Winooski, Vt., USA), with the wavelength of the measurement filter set at 490 nm and a reference filter set at 450 nm. The absorbance of the reference filter was subtracted from the measurement filter to obtain a final absorbance of λ490-450 nm. The absorbance data was analysed and IC50 values determined by the KC4 microplate data analysis software (KC4™ V3.4, Bio-Tek).
(§4) Anti-proliferative IC50 assays were repeated as described above including the addition of 3 μM SN34037, a selective and potent small molecule inhibitor of AKR1C3.

[3] = system: HCT116 colon cancer cells engineered to over-express AKR1C3; test: Anti-proliferative IC50 assay (SRB), HCT116 over-expressing AKR1C3; assay type: cell-based, human
Excerpt: as §1, §2, §3, §4

[4] = system: SNU-398^AKR1C3 (AKR1C3 over-expressing) hepatocellular carcinoma xenografts; test: Tumour growth delay, SNU-398 AKR1C3 over-expressing xenografts; assay type: in vivo, NIH-III mice; conditions: q4dx4 intraperitoneal, 50 mg/kg
Excerpt: (§5) Specific pathogen-free female homozygous nude NIH-III (NIH-Lyst^bg Foxn1^nu Btk^xid) mice were bred by the Vernon Jansen Unit (shared vivarium, University of Auckland). Animals were housed in Techniplast microisolator cages and provided with a standard twelve hour day-night light schedule. Animals received standard rodent diet (Harlan Teklad diet 2018i) and water ad libitum. All animal studies were approved by the University of Auckland Animal Ethics Committee.
(§6) Animals weighed 18-25 g at the time of tumour inoculation. Tumours were grown subcutaneously on the right flank of mice by inoculating cells grown in tissue culture (1×10^7 cells in 100 uL serum free α-MEM). Tumour sizes were monitored three times weekly using electronic callipers and treatments were initiated once tumour diameter reached ≥7 mm.
(§7) Tumour bearing mice were randomised into the appropriate treatment groups and tumour size and body weight recorded. Test compounds were formulated on the day of the experiment and kept in foil-wrapped tubes out of direct fluorescent light. […] Mice were treated with a single (or q4dx3 or q4dx4 or q4dx6) dose of a compound of the invention by intraperitoneal injection and thereafter tumour size and body weight was monitored every second day. Tumour volume was calculated as […] (l×w×w)/6, where l is the major axis and w is the perpendicular minor axis. […]

[5] = system: SNU-398^WT (wild type) hepatocellular carcinoma xenografts; test: Tumour growth delay, SNU-398 wild type xenografts; assay type: in vivo, NIH-III mice; conditions: q4dx4 intraperitoneal, 50 mg/kg; negligible AKR1C3 expression; FIG. 7
Excerpt: as §5, §6, §7

[6] = Stability in solution by HPLC in water and lactate buffer; assay type: physicochemical
Method: (§8) The solubility and stability of compound 641 was studied by HPLC in lactate buffer (pH 4) and water as the free base and the mesylate salt (641.Ms) at 0° C. and room temperature (RT). […] However, this was improved considerably by formulation as the mesylate salt, producing a solubility of greater than 100 mmol/L in lactate buffer and greater than 70 mmol/L in water. […] This stability was improved considerably by reducing the temperature of the solution to 0° C.

[7] = system: SW780 bladder carcinoma xenografts; test: Tumour growth delay, SW780 xenografts; assay type: in vivo, NIH-III mice; conditions: q4dx6 intraperitoneal, 50 mg/kg
Excerpt: as §5, §6, §7

[8] = system: H460 lung cancer xenografts; test: Tumour growth delay, H460 xenografts; assay type: in vivo, NIH-III mice
Excerpt: as §5, §6
Tumour bearing mice were randomised into the appropriate treatment groups and tumour size and body weight recorded. Test compounds were formulated on the day of the experiment and kept in foil-wrapped tubes out of direct fluorescent light. If recruitment of animals occurred over multiple days, the drug stocks were aliquoted into tubes and frozen once at −80° C. until required. Mice were treated with a single (or q4dx3 or q4dx4 or q4dx6) dose of a compound of the invention by intraperitoneal injection and thereafter tumour size and body weight was monitored every second day. Tumour volume was calculated as […] (l×w×w)/6, where l is the major axis and w is the perpendicular minor axis. Animals were culled when they had reached the appropriate survival endpoint or when body weight loss exceeded 20% of the pre-treatment value.

[9] = system: PLC/PRF/5 hepatocellular carcinoma xenografts; test: Tumour growth delay, PLC/PRF/5 xenografts; assay type: in vivo, NIH-III mice; conditions: q4dx4 intraperitoneal, 114 mg/kg
Excerpt: as §5, §6, §7

[10] = Solubility by HPLC in water and lactate buffer; assay type: physicochemical; conditions: water, room temperature; read-out: Solubility, Water, RT
Method: as §8

O=C(NCCO)c1cc([N+](=O)[O-])cc([N+](=O)[O-])c1N(CCBr)CCBr [SN27686, reference compound]
BEE reported in AKR1C3 mixed MCLs (AKR1C3 mixed MCLs): 57.6%
bystander effect [1]: 48%
pIC50 [2]: 4.37
pIC50 ([3]; 4 hour exposure, 5 days growth, read-out: HCT116-AKR1C3 IC50): 5.84
IC50 Ratio WT:AKR1C3 ([3]; HCT116-WT vs HCT116-AKR1C3): 29

CN1CCN(S(=O)(=O)c2cc([N+](=O)[O-])ccc2N(CCOS(C)(=O)=O)CCOS(C)(=O)=O)CC1 [Compound 641.Ms, 4-((2-(bis(2-((methylsulfonyl)oxy)ethyl)amino)-5-nitrophenyl)sulfonyl)-1-methylpiperazin-1-ium methanesulfonate]
anti-tumour activity (mean tumour volume) ([4]; FIG. 7): significant anti-tumour activity
tolerability of schedule ([4]; mice bearing SNU-398^WT or SNU-398^AKR1C3 xenografts): well-tolerated
anti-tumour activity (mean tumour volume) [5]: inactive
Stability (% Parent after 24 hours), Lactate Buffer, 0° C. ([6]; lactate buffer (pH 4), 0° C.): 91.7%
Stability (% Parent after 24 hours), Lactate Buffer, RT ([6]; lactate buffer (pH 4), room temperature, methanesulfonate): 51.9%
Stability (% Parent after 24 hours), Water, RT ([6]; water, room temperature): 53.8%
tolerability of schedule [7]: well-tolerated
anti-tumour activity (mean tumour volume) ([7]; FIG. 6): significant anti-tumour activity
anti-tumour efficacy (mean tumour volume) ([8]; q4dx4 intraperitoneal, 10, 25, 50, 100 and 150 mg/kg, FIG. 4): significant anti-tumour efficacy
mean percentage change in body weight ([8]; q4dx4 intraperitoneal, 10-150 mg/kg, all dose cohorts): ≥ −10%
tolerability ([8]; q4dx4 intraperitoneal, 10-150 mg/kg, methanesulfonate): well-tolerated; also recorded: well tolerated
anti-tumour efficacy (mean tumour volume) ([8]; single dose intraperitoneal, 237, 422, 562, 750 and 1000 μmol/kg, FIG. 3): significant anti-tumour efficacy
tolerability ([8]; single dose intraperitoneal, 237-1000 μmol/kg): well-tolerated
tolerability of schedule [9]: well-tolerated
anti-tumour activity (mean tumour volume) ([9]; FIG. 5): significant anti-tumour activity
solubility [10]: > 70 mM
